Experimental data taken from patent US20180214428A1, “3-(1H-INDOL-2-YL)-1H-PYRAZOLO[3,4-B]PYRIDINES AND THERAPEUTIC USES THEREOF” (Samumed, LLC, priority 2015, published 2018).

Key:
IL-6 = IL-6 inhibition in LPS-stimulated THP-1 monocytes (HTRF); format: cell-based, human; conditions: Homo sapiens, THP-1 cells; for EC50: 500 ng/mL LPS, 22 h, HTRF IL-6 readout, 10-point dose-response from 10 μM; for inhibition at 10 µM: LPS stimulated, given only where EC50 >10 μM, top concentration 10 μM, read-out: percentage in parentheses beside EC50 >10 (IL-6 inhibition)
Summary of the method: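 THP-1 cells serum-reduced (1% FBS, 24 h), then 5000 cells/well preincubated 2 h with compound (10-point 1:3 series from 10 μM, 0.1% DMSO) before 500 ng/mL LPS for 22 h at 37 °C. Secreted IL-6 quantified by HTRF 665/620 ratio; DMSO-normalised duplicates fitted to four-parameter EC50; above 10 μM, % inhibition at 10 μM given.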

SW480 colon cancer cells = test: Cell viability assay (CellTiter-Blue) in SW480 colon cancer cells; format: cell-based, human; conditions: Homo sapiens; for EC50: 96 h, four days, CellTiter-Blue; for inhibition at 10 µM: given for EC50 of >10 μM, read-out: percent inhibition at 10 μM
Summary of the method: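 Resazurin reduction (Ex 560/Em 590 nm, ~3 h reagent incubation) served as the viability read-out after SW480 cells were treated for four days at 37 °C. Doses ran from 10 μM down to 0.0045 μM in eight 1:3 steps. Curves fitted non-linearly for EC50, else % inhibition at 10 μM reported.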

[1] = test system: primary human fibroblasts derived from IPF patients (LL29 cells); test: Inhibition of the fibrotic process: αSMA staining in TGF-β1 treated LL29 fibroblasts; format: cell-based; conditions: Homo sapiens, Fibroblast; for EC50: 96 h, TGF-β1 20 ng/mL, 4 days, % αSMA positive cells
Summary of the method: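 IPF patient-derived LL29 fibroblasts in 1% FBS medium got compound (11-point, 10 μM to 1.87 nM, 0.1% DMSO) plus TGF-β1 20 ng/mL, 4 days at 37° C. αSMA-positive live cells (SYTOX-excluded) were imaged, normalized to TGF-β1 controls and fitted for EC50; % inhibition at 10 μM given when EC50 >10 μM.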

SMILES | EC50 (IL-6) | EC50 (SW480 colon cancer cells) | EC50 [1] | inhibition at 10 µM (SW480 colon cancer cells) | inhibition at 10 µM (IL-6) | inhibition at 10 µM ([1]; at 10 μM, given for EC50 of >10 μM, TGF-β1, αSMA, read-out: percent inhibition at 10 μM)
CN(C)CCNc1cc(F)cc(-c2cccc3[nH]c(-c4n[nH]c5ncc(-c6cncc(N)c6)cc45)cc23)c1 [Compound 425, N^1-(3-(2-(5-(5-Aminopyridin-3-yl)-1H-pyrazolo[3,4-b]pyridin-3-yl)-1H-indol-4-yl)-5-fluorophenyl)-N^2,N^2-dimethylethane-1,2-diamine] | 92 nM | 527 nM | 332 nM | – | – | –
c1ccc(CNCc2cncc(-c3cnc4[nH]nc(-c5cc6ncccc6[nH]5)c4c3)c2)cc1 [Compound 502, 1-(5-(3-(1H-Pyrrolo[3,2-b]pyridin-2-yl)-1H-pyrazolo[3,4-b]pyridin-5-yl)pyridin-3-yl)-N-benzylmethanamine] | 6010 nM | > 10000 nM | 3120 nM | 9.8% | – | –
c1ccc(-c2cccc3[nH]c(-c4n[nH]c5ncc(-c6cncc(CN7CCCC7)c6)cc45)cc23)nc1 [Compound 131, 3-(4-(Pyridin-2-yl)-1H-indol-2-yl)-5-(5-(pyrrolidin-1-ylmethyl)pyridin-3-yl)-1H-pyrazolo[3,4-b]pyridine] | 1120 nM | 1190 nM | 970 nM | – | – | –
c1ccc(-c2cccc3[nH]c(-c4n[nH]c5ncc(-c6cncnc6)cc45)cc23)nc1 [Compound 143, 3-(4-(Pyridin-2-yl)-1H-indol-2-yl)-5-(pyrimidin-5-yl)-1H-pyrazolo[3,4-b]pyridine] | > 10000 nM | 9910 nM | 4960 nM | – | 37.6% | –
CCNCc1cncc(-c2cnc3[nH]nc(-c4cc5c(-c6cc(F)cc(NCCN(C)C)c6)cccc5[nH]4)c3c2)c1 [Compound 428, N^1-(3-(2-(5-(5-((Ethylamino)methyl)pyridin-3-yl)-1H-pyrazolo[3,4-b]pyridin-3-yl)-1H-indol-4-yl)-5-fluorophenyl)-N^2,N^2-dimethylethane-1,2-diamine] | 257 nM | 757 nM | 1250 nM | – | – | –
O=C(Nc1cncc(-c2cnc3[nH]nc(-c4cc5c(-c6ccncc6)cccc5[nH]4)c3c2)c1)C1CCCCC1 [Compound 115, N-(5-(3-(4-(Pyridin-4-yl)-1H-indol-2-yl)-1H-pyrazolo[3,4-b]pyridin-5-yl)pyridin-3-yl)cyclohexanecarboxamide] | 594 nM | > 10000 nM | 4980 nM | 24.3% | – | –
CC(C)(C)CC(=O)Nc1cncc(-c2cnc3[nH]nc(-c4cc5c(-c6ccccn6)cccc5[nH]4)c3c2)c1 [Compound 133, 3,3-Dimethyl-N-(5-(3-(4-(pyridin-2-yl)-1H-indol-2-yl)-1H-pyrazolo[3,4-b]pyridin-5-yl)pyridin-3-yl)butanamide] | 421 nM | 3250 nM | 753 nM | – | – | –
CC(C)(C)CC(=O)Nc1cncc(-c2cnc3[nH]nc(-c4cc5c(-c6ccccc6F)cccc5[nH]4)c3c2)c1 [Compound 61, N-(5-(3-(4-(2-Fluorophenyl)-1H-indol-2-yl)-1H-pyrazolo[3,4-b]pyridin-5-yl)pyridin-3-yl)-3,3-dimethylbutanamide] | 4640 nM | > 10000 nM | 4970 nM | 25.2% | – | –
CC(C)Nc1cncc(-c2cnc3[nH]nc(-c4cc5c(-c6cccnc6)cccc5[nH]4)c3c2)c1 [Compound 81, N-Isopropyl-5-(3-(4-(pyridin-3-yl)-1H-indol-2-yl)-1H-pyrazolo[3,4-b]pyridin-5-yl)pyridin-3-amine] | 1560 nM | 3700 nM | 1410 nM | – | – | –
Cc1ccncc1-c1cnc2[nH]nc(-c3cc4c(-c5cc(F)cc(CNS(C)(=O)=O)c5)cccc4[nH]3)c2c1 [Compound 455, N-(3-Fluoro-5-(2-(5-(4-methylpyridin-3-yl)-1H-pyrazolo[3,4-b]pyridin-3-yl)-1H-indol-4-yl)benzyl)methanesulfonamide] | > 10000 nM | > 10000 nM | > 10000 nM | 8.7% | 54.8% | 43.9%
O=C(Nc1cncc(-c2cnc3[nH]nc(-c4cc5c(N6CCCCC6)cccc5[nH]4)c3c2)c1)c1ccccc1 [Compound 155, N-(5-(3-(4-(Piperidin-1-yl)-1H-indol-2-yl)-1H-pyrazolo[3,4-b]pyridin-5-yl)pyridin-3-yl)benzamide] | > 10000 nM | > 10000 nM | 5170 nM | 31% | 21.8% | –
CCCC(=O)Nc1cncc(-c2cnc3[nH]nc(-c4cc5c(-c6cccc(F)c6)cccc5[nH]4)c3c2)c1 [Compound 14, N-(5-(3-(4-(3-Fluorophenyl)-1H-indol-2-yl)-1H-pyrazolo[3,4-b]pyridin-5-yl)pyridin-3-yl)butyramide] | > 10000 nM | > 10000 nM | > 10000 nM | 9.9% | 20.3% | –
CCCCC(=O)Nc1cncc(-c2cnc3[nH]nc(-c4cc5c(N6CCCCC6)cccc5[nH]4)c3c2)c1 [Compound 163, N-(5-(3-(4-(Piperidin-1-yl)-1H-indol-2-yl)-1H-pyrazolo[3,4-b]pyridin-5-yl)pyridin-3-yl)pentanamide] | > 10000 nM | > 10000 nM | 8110 nM | 38% | 43.2% | –
O=C(Nc1cncc(-c2cnc3[nH]nc(-c4cc5c(-c6ccc(F)cc6)cccc5[nH]4)c3c2)c1)C1CCC1 [Compound 41, N-(5-(3-(4-(4-Fluorophenyl)-1H-indol-2-yl)-1H-pyrazolo[3,4-b]pyridin-5-yl)pyridin-3-yl)cyclobutanecarboxamide] | > 10000 nM | 5100 nM | 1160 nM | – | 10.7% | –
CCCC(=O)Nc1cncc(-c2cnc3[nH]nc(-c4cc5ccccc5[nH]4)c3c2)c1 [Compound 243, N-(5-(3-(1H-Indol-2-yl)-1H-pyrazolo[3,4-b]pyridin-5-yl)pyridin-3-yl) butyramide] | 2080 nM | 632 nM | 210 nM | – | – | –
CCNCc1cncc(-c2cnc3[nH]nc(-c4cc5c(-c6ccccc6F)cccc5[nH]4)c3c2)c1 [Compound 52, N-((5-(3-(4-(2-Fluorophenyl)-1H-indol-2-yl)-1H-pyrazolo[3,4-b]pyridin-5-yl)pyridin-3-yl)methyl)ethanamine] | 2690 nM | 2700 nM | 991 nM | – | – | –
c1cncc(-c2cnc3[nH]nc(-c4cc5c(-c6cccnc6)cccc5[nH]4)c3c2)c1 [Compound 74, 5-(Pyridin-3-yl)-3-(4-(pyridin-3-yl)-1H-indol-2-yl)-1H-pyrazolo[3,4-b]pyridine] | 76 nM | 3520 nM | 410 nM | – | – | –
CC(C)(C)C(=O)Nc1cncc(-c2cnc3[nH]nc(-c4cc5c(-c6ccc(F)cc6)cccc5[nH]4)c3c2)c1 [Compound 30, N-(5-(3-(4-(4-Fluorophenyl)-1H-indol-2-yl)-1H-pyrazolo[3,4-b]pyridin-5-yl)pyridin-3-yl)pivalamide] | > 10000 nM | > 10000 nM | 4160 nM | 13.9% | 42.8% | –
O=C(Nc1cncc(-c2cnc3[nH]nc(-c4cc5c(-c6cccnc6)cccc5[nH]4)c3c2)c1)C1CCC1 [Compound 89, N-(5-(3-(4-(Pyridin-3-yl)-1H-indol-2-yl)-1H-pyrazolo[3,4-b]pyridin-5-yl)pyridin-3-yl)cyclobutanecarboxamide] | 104 nM | 565 nM | 147 nM | – | – | –
